Data as given in patent publication US20260209275A1, “PEPTIDE(S), COMPOSITION(S) AND METHOD(S) HAVING BROAD SPECTRUM ACTIVITY AGAINST CROP INSECTS” (TELLURIS BIOTECH INDIA PRIVATE LIMITED, priority 2022, published 2026).

System: Common fruit fly, Drosophila melanogaster
Experiment: Diet surface treatment bioassay against common fruit fly, population after one generation
Format: in vivo
Details: single peptide 0.1 mg/ml; after 14 days (one generation)
Experimental: A trap made up from a ripened banana was kept in an open, shady, and damp place to capture the flies. Captured flies were anaesthetized using about 5% Triethylamine (TAE) treatment for about 1 minute. Drosophila melanogaster files were identified, separated, and transferred to a flask containing diet made up of Corn flour: about […], Sugar: about 51 μm, Agar agar: about […], Yeast: about 17 μm, Methyl Paraben: about 4 μm, Propionic acid: about 4 ml, Distilled Water: about 1200 ml. Freshly emerged flies were transferred to separate bottle to synchronize the population. The population was maintained in a separate room at a temperature of about 25±2° C., RH of about 60-65% and was subjected to a 16:8 (light: dark) h photoperiod.
The insecticide stock solutions were prepared by dilution with phosphate buffered saline (PBS, pH 7.0) to achieve desire doses of test. Semi synthetic artificial diet surface treatment method was used to assess the efficacy of IPPs against […]. Diet was prepared as per the composition given above. 2 ml hot liquid diet poured in 25 ml glass vials (5 cm h and 1.5 cm diameter) and allowed to cool and solid. […] After 14 days precisely after one generation, insect stages, egg, larvae, pupa and adults were counted.

With `CC[C@H](C)[C@H](NC(=O)[C@H](CCC(N)=O)NC(=O)[C@H](CCC(N)=O)NC(=O)[C@H](CCC(=O)O)NC(=O)[C@H](CCCCN)NC(=O)[C@H](CCC(N)=O)NC(=O)[C@H](CCC(=O)O)NC(=O)[C@H](C)NC(=O)[C@@H](N)CCSC)C(=O)N[C@@H](CC(C)C)C(=O)N[C@@H](CCCNC(=N)N)C(=O)N[C@@H](CC(C)C)C(=O)N[C@@H](CCCNC(=N)N)C(=O)N[C@@H](CCC(=O)O)C(=O)N[C@@H](CO)C(=O)N[C@@H](Cc1c[nH]cn1)C(=O)N[C@@H](Cc1c[nH]cn1)C(=O)N[C@@H](Cc1c[nH]cn1)C(=O)N[C@@H](Cc1c[nH]cn1)C(=O)N[C@@H](Cc1c[nH]cn1)C(=O)N[C@@H](Cc1c[nH]cn1)C(=O)O` [Seq. ID No. 3, MAEQKEQQILRLRES] the “Observed Response (Percent reduction of population over UTC) SEQ ID No. X / SEQ ID No. Y” value was 37.79%.
